Data published in PubChem BioAssay AID282 (DTP/NCI, 2004).
“And” between values parts separate entries of the source, which are not always exact repeats. Identical values can stand only once. Inconclusive results and toxic doses are left out.

Test system: BDF1 mice, L1210 terephthalanilide-resistant leukemia ip, survival T/C
Assay: NCI In Vivo Anticancer Drug Screen. Data for tumor model L1210 Leukemia resistant to A Terephthalanilide; NSC 38280 (intraperitoneal) in B6D2F1 (BDF1) mice
Details: endpoint: mean survival time, higher = longer survival
Procedure: The antitumor activity of compounds was measured in mice bearing transplantable tumors. Survival or tumor size were measured and the results are expressed as the measurement made in the treated group (T) divided by the measurement made in the vehicle treated control group (C). The tumor model used in this assay is L1210 Leukemia resistant to A Terephthalanilide; NSC 38280 (intraperitoneal) in B6D2F1 (BDF1) mice

[1] = dose: 8.0 mg/kg/injection, schedule: Q01DX010 (ip), vehicle: saline
[2] = dose: 125.0 mg/kg/injection, schedule: Q01DX Z (ip), vehicle: carboxymethylcellulose (CMC)
[3] = dose: 62.5 mg/kg/injection, schedule: Q01DX010 (ip), vehicle: saline
[4] = dose: 125.0 mg/kg/injection, schedule: Q01DX010 (ip), vehicle: saline
[5] = dose: 125.0 mg/kg/injection, schedule: Q01DX Z (ip), vehicle: saline
[6] = dose: 250.0 mg/kg/injection, schedule: Q01DX010 (ip), vehicle: saline
[7] = dose: 250.0 mg/kg/injection, schedule: Q01DX Z (ip), vehicle: saline
[8] = dose: 500.0 mg/kg/injection, schedule: Q01DX010 (ip), vehicle: saline
[9] = dose: 500.0 mg/kg/injection, schedule: Q01DX Z (ip), vehicle: saline

O=C(Nc1ccc(C2=NCCN2)cc1)c1ccc(C(=O)Nc2ccc(C3=NCCN3)cc2)c(F)c1
T/C (dose: 22.5 mg/kg/injection, schedule: Q01DX010 (ip), vehicle: saline): 100 % of control and 101 % of control | T/C (dose: 45.0 mg/kg/injection, schedule: Q01DX010 (ip), vehicle: saline): 101 % of control and 102 % of control | T/C (dose: 90.0 mg/kg/injection, schedule: Q01DX010 (ip), vehicle: saline): 103 % of control and 106 % of control | T/C (dose: 180.0 mg/kg/injection, schedule: Q01DX010 (ip), vehicle: saline): 100 % of control

OCC1OC(n2cnc3c(=S)nc[nH]c32)C(O)C1O (stereo not drawn)
T/C (dose: 20.0 mg/kg/injection, schedule: Q01DX010 (ip), vehicle: saline): 111 % of control | T/C (dose: 40.0 mg/kg/injection, schedule: Q01DX010 (ip), vehicle: saline): 119 % of control | T/C (dose: 160.0 mg/kg/injection, schedule: Q01DX010 (ip), vehicle: saline): 162 % of control

O[C@H](CN1CC1)[C@@H](O)CN1CC1
T/C (dose: 0.18 mg/kg/injection, schedule: Q01DX Z (ip), vehicle: saline): 317 % of control | T/C (dose: 0.25 mg/kg/injection, schedule: Q01DX Z (ip), vehicle: saline): 300 % of control | T/C (dose: 0.37 mg/kg/injection, schedule: Q01DX Z (ip), vehicle: saline): 223 % of control | T/C (dose: 5.0 mg/kg/injection, schedule: Q01DX Z (ip), vehicle: saline): 188 % of control | T/C (dose: 2.0 micrograms/kg/injection, schedule: Q01DX Z (ip), vehicle: saline): 109 % of control | T/C (dose: 4.0 micrograms/kg/injection, schedule: Q01DX Z (ip), vehicle: saline): 101 % of control | T/C (dose: 6.0 micrograms/kg/injection, schedule: Q01DX Z (ip), vehicle: saline): 98 % of control | T/C (dose: 9.0 micrograms/kg/injection, schedule: Q01DX Z (ip), vehicle: saline): 110 % of control | T/C (dose: 18.0 micrograms/kg/injection, schedule: Q01DX Z (ip), vehicle: saline): 115 % of control | T/C (dose: 37.0 micrograms/kg/injection, schedule: Q01DX Z (ip), vehicle: saline): 103 % of control | T/C (dose: 50.0 micrograms/kg/injection, schedule: Q01DX Z (ip), vehicle: saline): 156 % of control | T/C (dose: 62.5 micrograms/kg/injection, schedule: Q01DX010 (ip), vehicle: saline): 120 % of control | T/C (dose: 75.0 micrograms/kg/injection, schedule: Q01DX Z (ip), vehicle: saline): 154 % of control and 162 % of control | T/C (dose: 125.0 micrograms/kg/injection, schedule: Q01DX010 (ip), vehicle: saline): 111 % of control | T/C (dose: 180.0 micrograms/kg/injection, schedule: Q01DX Z (ip), vehicle: saline): 284 % of control | T/C (dose: 210.0 micrograms/kg/injection, schedule: Q01DX Z (ip), vehicle: saline): 235 % of control | T/C (dose: 500.0 micrograms/kg/injection, schedule: Q01DX010 (ip), vehicle: saline): 91 % of control

Nc1nc(SCc2ccccc2)c2[nH]cnc2n1
T/C [1]: 92 % of control and 104 % of control | T/C (dose: 16.0 mg/kg/injection, schedule: Q01DX010 (ip), vehicle: saline): 104 % of control | T/C (dose: 32.0 mg/kg/injection, schedule: Q01DX010 (ip), vehicle: saline): 115 % of control | T/C (dose: 62.5 mg/kg/injection, schedule: Q01DX Z (ip), vehicle: carboxymethylcellulose (CMC)): 111 % of control | T/C (dose: 64.0 mg/kg/injection, schedule: Q01DX010 (ip), vehicle: saline): 95 % of control and 114 % of control | T/C [2]: 107 % of control

O=C(Nc1cccc(C(=O)Nc2ccc(C3=NCCN3)cc2)c1)c1ccc(C2=NCCN2)cc1
T/C (dose: 54.0 mg/kg/injection, schedule: Q01DX010 (ip), vehicle: saline): 90 % of control

C[C@H]1C(=O)O[C@@H]2CCN3CC=C(COC(=O)[C@](C)(O)[C@@]1(C)O)[C@H]23
T/C (dose: 3.13 mg/kg/injection, schedule: Q01DX010 (ip), vehicle: saline): 97 % of control | T/C (dose: 6.25 mg/kg/injection, schedule: Q01DX010 (ip), vehicle: saline): 102 % of control | T/C (dose: 12.5 mg/kg/injection, schedule: Q01DX010 (ip), vehicle: saline): 97 % of control and 106 % of control | T/C (dose: 25.0 mg/kg/injection, schedule: Q01DX010 (ip), vehicle: saline): 103 % of control and 106 % of control | T/C (dose: 25.0 mg/kg/injection, schedule: Q01DX Z (ip), vehicle: carboxymethylcellulose (CMC)): 107 % of control | T/C (dose: 50.0 mg/kg/injection, schedule: Q01DX010 (ip), vehicle: saline): 100 % of control | T/C (dose: 50.0 mg/kg/injection, schedule: Q01DX Z (ip), vehicle: carboxymethylcellulose (CMC)): 100 % of control | T/C (dose: 100.0 mg/kg/injection, schedule: Q01DX Z (ip), vehicle: carboxymethylcellulose (CMC)): 119 % of control | T/C (dose: 200.0 mg/kg/injection, schedule: Q01DX Z (ip), vehicle: carboxymethylcellulose (CMC)): 161 % of control

C[C@@H]1C[C@H]2CC[C@H](O2)[C@H](C)C(=O)O[C@@H](C)C[C@@H]2CC[C@@H](O2)[C@@H](C)C(=O)O[C@H](C)C[C@H]2CC[C@H](O2)[C@H](C)C(=O)O[C@@H](C)C[C@@H]2CC[C@@H](O2)[C@@H](C)C(=O)O1
T/C (dose: 45.0 mg/kg/injection, schedule: Q01DX Z (ip), vehicle: carboxymethylcellulose (CMC)): 92 % of control | T/C (dose: 90.0 mg/kg/injection, schedule: Q01DX Z (ip), vehicle: carboxymethylcellulose (CMC)): 95 % of control | T/C (dose: 180.0 mg/kg/injection, schedule: Q01DX Z (ip), vehicle: carboxymethylcellulose (CMC)): 104 % of control | T/C (dose: 360.0 mg/kg/injection, schedule: Q01DX Z (ip), vehicle: carboxymethylcellulose (CMC)): 108 % of control

O=CCC(O)C(O)C(O)CO (stereo not drawn)
T/C [3]: 96 % of control and 104 % of control | T/C (dose: 62.5 mg/kg/injection, schedule: Q01DX Z (ip), vehicle: saline): 112 % of control | T/C [4]: 113 % of control | T/C [5]: 108 % of control | T/C [6]: 105 % of control and 113 % of control | T/C [7]: 108 % of control | T/C [8]: 116 % of control and 118 % of control | T/C [9]: 116 % of control

O=C(Nc1ccc(C2=NCCN2)cc1)Nc1cccc(NC(=O)Nc2ccc(C3=NCCN3)cc2)c1
T/C (dose: 60.0 mg/kg/injection, schedule: Q01DX010 (ip), vehicle: saline): 96 % of control and 110 % of control | T/C (dose: 120.0 mg/kg/injection, schedule: Q01DX010 (ip), vehicle: saline): 92 % of control and 116 % of control | T/C (dose: 240.0 mg/kg/injection, schedule: Q01DX010 (ip), vehicle: saline): 96 % of control and 100 % of control | T/C (dose: 480.0 mg/kg/injection, schedule: Q01DX010 (ip), vehicle: saline): 86 % of control and 87 % of control

CS(=O)(=O)OCCCl
T/C (dose: 18.8 mg/kg/injection, schedule: Q01DX010 (ip), vehicle: saline): 99 % of control and 108 % of control | T/C (dose: 37.5 mg/kg/injection, schedule: Q01DX010 (ip), vehicle: saline): 90 % of control and 103 % of control | T/C (dose: 44.0 mg/kg/injection, schedule: Q01DX Z (ip), vehicle: saline): 103 % of control | T/C (dose: 75.0 mg/kg/injection, schedule: Q01DX010 (ip), vehicle: saline): 107 % of control and 108 % of control | T/C (dose: 87.5 mg/kg/injection, schedule: Q01DX Z (ip), vehicle: saline): 115 % of control | T/C (dose: 150.0 mg/kg/injection, schedule: Q01DX010 (ip), vehicle: saline): 89 % of control | T/C (dose: 175.0 mg/kg/injection, schedule: Q01DX Z (ip), vehicle: saline): 119 % of control

O=c1cn[nH]c(=O)[nH]1
T/C (dose: 62.0 mg/kg/injection, schedule: Q01DX Z (ip), vehicle: carboxymethylcellulose (CMC)): 101 % of control | T/C [3]: 97 % of control and 101 % of control | T/C [4]: 97 % of control and 105 % of control | T/C [2]: 101 % of control | T/C [6]: 106 % of control and 113 % of control | T/C (dose: 250.0 mg/kg/injection, schedule: Q01DX Z (ip), vehicle: carboxymethylcellulose (CMC)): 106 % of control | T/C [8]: 123 % of control and 115 % of control | T/C (dose: 500.0 mg/kg/injection, schedule: Q01DX Z (ip), vehicle: carboxymethylcellulose (CMC)): 113 % of control

CC(=O)N(C)C
T/C [3]: 94 % of control and 105 % of control | T/C [4]: 92 % of control and 97 % of control | T/C [5]: 108 % of control | T/C [6]: 90 % of control and 96 % of control | T/C [7]: 112 % of control | T/C [8]: 96 % of control and 105 % of control | T/C [9]: 110 % of control | T/C (dose: 750.0 mg/kg/injection, schedule: Q01DX Z (ip), vehicle: saline): 114 % of control

O=C(Nc1ccc(C2=NCCN2)cc1)c1ccc(C(=O)Nc2ccc(C3=NCCN3)cc2)c([N+](=O)[O-])c1
T/C (dose: 6.0 mg/kg/injection, schedule: Q01DX010 (ip), vehicle: saline): 102 % of control and 108 % of control | T/C [1]: 100 % of control and 113 % of control | T/C (dose: 12.0 mg/kg/injection, schedule: Q01DX010 (ip), vehicle: saline): 112 % of control and 119 % of control | T/C (dose: 18.0 mg/kg/injection, schedule: Q01DX010 (ip), vehicle: saline): 89 % of control and 95 % of control
